{"source": "patent US20260232752A1", "about": "“COMBINATION THERAPY METHODS, COMPOSITIONS AND KITS” (Accure Therapeutics, S.L., priority 2019, published 2026)", "key": {"[1]": {"system": "EAE in C57BL6 mice immunized with MOG35-55", "test": "Example 4: BN201 and STAT3 inhibitor combination, chronic phase of EAE", "assay_type": "in vivo, mouse", "settings": "S31-201 5 mg/kg i.p. alone (optimal), from day 34 to day 54", "method": "Effect during the chronic phase of the disease in the animal model of Multiple Sclerosis (i.e., EAE in C57BL6 mice immunized with MOG35-55)\nEfficacy and safety of combination therapy with optimal doses of BN201 (50 mg/kg) and S31-201 (5 mg/kg) in the progression of chronic EAE in mice.\nStarting the chronic phase of the disease (by day 34) mice were administered: • the STAT3 inhibitor S31-201 (group A, 7 mice), • BN201 (group B, 6 mice), or • a combination thereof (group C, 6 mice) once a day for six days per week at optimal dosages (5 mg/kg for S31-201, 50 mg/kg for BN201).\nS31-201 and BN201 were administered via i.p. injection in a saline vehicle at a volume of 5 mL/kg. Control mice received vehicle only via both oral and i.p. injection (group D, 6 mice) or nothing at all (group E, 2 mice). Mice were treated from day 34 (chronic EAE stage) until the end of the experiment on day 54.\nThe combination of BN201 and the STAT3-inhibitor S31-201 was evaluated for its effect during the chronic phase of the disease in the animal model of Multiple Sclerosis (i.e., EAE in C57BL6 mice immunized with MOG35-55). The objective of the study was to evaluate the efficacy and safety of combination therapy with optimal doses of BN201 (50 mg/kg) and 531-201 (5 mg/kg) in the progression of chronic EAE in mice. […]"}, "[2]": {"system": "rat model of experimental autoimmune encephalomyelitis (EAE)", "settings": "cited from earlier work"}, "[3]": {"system": "non-obese diabetic mouse model of relapsing-remitting EAE", "settings": "cited from earlier work"}, "[4]": {"system": "human neuroblastoma cell line SH-SY5Y", "test": "Neuroprotection against H2O2 oxidative stress, MTT assay", "assay_type": "cell-based", "settings": "1 hour preincubation at 0.03-40 μM, then H2O2 15 μM 30 minutes", "method": "The objective of the study was to test the possible synergistic effect of the BN201-monomethylfumarate salt in a neuroprotective assay. Thus, BN201-monomethylfumarate salt obtained as indicated in example 5, was tested for its ability to protect the human neuroblastoma cell line SH-SY5Y against death induced by oxidative stress (i.e., hydrogen peroxide (H202)) using an MTT (3-(4,5-dimethylthiazol-2-yl)-2,5-diphenyltetrazolium bromide) cell proliferation assay.\nSH-SY5Y cells were cultivated in 50% Eagle's minimum essential medium (EMEM), 50% Ham's F12 Nutrient Mixture, 10% fetal bovine serum (FBS), 2 mM L-Glu, and 1% penicillin/streptomycin. All of the cell cultures were maintained in a humidified incubator at 5% CO2 and at 37° C. SH-SY5Y cells were preincubated for 1 hour with BN201 alone, monomethyl fumarate alone, or BN201-monomethylfumarate salt at various concentrations (n=5; concentrations: 0.03 μM, 0.1 μM, 0.3 μM, 0.5 μM, 1 μM, 3 μM, 5 μM, 10 μM, 20 μM, 40 μM) and then H2O2 (15 μM) was added to induce stress. Preincubation with sodium pyruvate (10 mM) was used as a positive control. After 30 minutes of H2O2 incubation, the medium was changed and thiazolyl blue tetrazolium bromide (MTT; Sigma Aldrich; stock concentration 10 mg/ml) was added to each well at the final concentration of 0.5 mg/ml. After 2 hours of MTT incubation the cell medium was removed, and cells were resuspended in pure dimethyl sulfoxide (DMSO). Cell viability was determined by reading the absorbance at 570 nm. Each experiment was performed in quintuplicate."}, "[5]": {"system": "experimental autoimmune encephalomyelitis (EAE) mouse model", "test": "Study EAE-C05: clinical score in EAE mouse model with active comparators", "assay_type": "in vivo", "settings": "2 mg/kg daily, after 5 days of treatment", "method": "A second experiment (Study EAE-C05) was then performed using the same mouse model.\nStudy EAE-C05: In addition to two dose levels of BN201 and a placebo-treated group (pathological control group), the study design introduced two active comparators, dimethyl fumarate (DMF) and fingolimod (FTY720), and a sham group (group in which animals were manipulated as the pathological group but without MOG injection). All groups were administered daily. • sham control non-diseased placebo-treated animals (healthy control group); • EAE-affected placebo-treated animals (pathological control group); • EAE-affected animals treated orally with 15 mg/kg of DMF; • EAE-affected animals treated with 2 mg/kg of FTY720; • EAE-affected animals treated with BN201 at 50 or 100 mg/kg.\n(§1) Clinical scores were assigned to assess disease severity using the following scale: 0=normal; 0.5=Partial tail paralysis; 1=Complete tail paralysis; 1.5=Tail paralysis and loss of righting reflex; 2=Partial hind limb paralysis/paralysis of one limb; 2.5=One limb paralysis and partial loss of activity of one other limb; 3=Bilateral hind limb paralysis; 4=Moribund; 5=exitus.\nTherapeutic treatment was initiated on day 12 or 13, once each mouse started showing complete tail paralysis (Score 1)."}, "[6]": {"system": "experimental autoimmune encephalomyelitis (EAE) mouse model", "test": "Study EAE-C06: dose response of BN201, clinical score in EAE mouse model", "assay_type": "in vivo", "settings": "2 mg/kg daily, almost all days of observation/treatment (Day 2 to day 30)", "method": "A third experiment (Study EAE-C06) to test dose response of BN201 was then performed using the same mouse model.\nStudy EAE-C06: five different concentrations of BN201: 12.5 mg/kg, 25 mg/kg, 50 mg/kg, 100 mg/kg, and 150 mg/kg. Also sham, pathological control and FTY720 (2 mg/kg) comparator groups were included in the experiment. All groups were administered daily.\nas §1\nTherapeutic treatment was initiated on day 12 once each mouse started showing complete tail paralysis (Score 1).\nData are depicted in FIG. 1 (C), wherein the clinical score for each of the tested groups is plotted per day after disease onset."}, "[7]": {"system": "EAE in C57BL6 mice immunized with MOG35-55", "test": "Example 3: BN201 and DMF combination, progression of chronic EAE", "assay_type": "in vivo, mouse", "settings": "DMF 10 mg/kg oral alone (suboptimal), once a day six days per week from day 15", "method": "Effect in the animal model of MS (i.e., EAE in C57BL6 mice immunized with MOG35-55), similar to Example 2.\nStarting on day 15, mice were administered: • dimethyl fumarate (DMF) (group A, 10 mice), • BN201 (group B, 10 mice) • a combination thereof (group C, 10 mice) once a day for six days per week at suboptimal dosages (10 mg/kg for DMF, 25 mg/kg for BN201).\nDMF was administered orally with a rigid cannula in a saline vehicle at a volume of 10 mL/kg, while BN201 was administered via i.p. injection in a saline vehicle at a volume of 5 mL/kg. Control mice received vehicle only via both oral and i.p. injection (group D, 10 mice) or nothing at all (group E, 2 mice).\nThe objective of the study was to evaluate the efficacy and safety of combination therapy with suboptimal doses of BN201 (25 mg/kg) and dimethyl-fumarate (DMF) (10 mg/kg) in the progression of chronic EAE in mice.\nDuring a one week acclimation period starting on day −7, mice were distributed based on body weight stratification into different experimental groups. On day 0, mice were immunized subcutaneously in both hind pads with 150 μg of MOG peptide 35-55 (Spikem, Firenze) emulsified with 50 μg of Mycobacterium tuberculosis (H37Ra strain; Difco, Detroit, MI) in incomplete Freund's adjuvant (IFA). […]"}}, "note": "Counter-ions that a name gives are not always drawn."}
{"compound": "Cc1ccc(S(=O)(=O)OCC(=O)Nc2ccc(C(=O)O)c(O)c2)cc1", "note": "[S31-201, 2-Hydroxy-4-[[[[(4-methylphenyl)sulfonyl]oxy]acetyl]amino]-benzoic acid, reference compound]", "values": [{"measurement": "course of EAE in chronic phase (clinical score)", "setting": "[1]", "value": "not efficacious"}]}
{"compound": "CCCc1ccc(COc2ccc3c(c2)CCC(CN2CC(C(=O)O)C2)=C3C)c(OC)c1", "note": "[Ceralifimod, 1-[[6-[(2-methoxy-4-propylphenyl)methoxy]-1-methyl-3,4-dihydronaphthalen-2-yl]methyl]azetidine-3-carboxylic acid]", "values": [{"measurement": "disease onset", "setting": "[2]", "value": "delays disease onset"}, {"measurement": "lymphocyte infiltration of the spinal cord", "setting": "[2]", "value": "inhibits lymphocyte infiltration of the spinal cord"}, {"measurement": "disease relapse", "setting": "[3]", "value": "prevents disease relapse"}]}
{"compound": "COC(=O)/C=C/C(=O)O", "note": "[fumarate, fumaric acid monomethyl ester, reference compound]", "values": [{"measurement": "cell viability as a percentage compared to the control (protection from death induced by oxidative stress)", "setting": "[4]", "value": "partially rescued neurons from death induced by oxidative stress"}]}
{"compound": "CCCCCCCCc1ccc(CCC(N)(CO)CO)cc1", "note": "[FTY720, Fingolimod, reference compound]", "values": [{"measurement": "clinical score compared to pathological control group", "setting": "[5]", "value": "significantly lower"}, {"measurement": "clinical score", "setting": "[6]", "value": "significant amelioration of the clinical score"}]}
{"compound": "COC(=O)/C=C/C(=O)OC", "note": "[DMF, Dimethyl fumarate, reference compound]", "values": [{"measurement": "course of EAE (clinical score) versus placebo", "setting": "[7]", "value": "suffered EAE similar to those mice treated with placebo"}]}
{"compound": "CC(C)CN(CC(=O)N(CCCN1CCCC1=O)CC(N)=O)C(=O)CNCCc1ccccc1F", "note": "[BN201-monomethylfumarate salt]", "values": [{"measurement": "cell viability as a percentage compared to the control (protection from death induced by oxidative stress)", "setting": "[4]", "value": "increased"}, {"measurement": "cell viability as a percentage compared to the control (protection from death induced by oxidative stress)", "setting": "[4]; listed as BN201-monomethylfumarate", "value": "significantly higher level of neuroprotection than either compound alone"}]}
